The text below walks through data of US11999745B2, “Pharmaceutical compounds” (Heptares Therapeutics Limited, priority 2020, dated 2024).

Read-outs that look alike come from different tables or passages of the source.

Data set [1] can be described thus: Hepatocyte stability, CLint (in vitro hepatocytes), human. The format is in vitro ADME. To be noted: pooled cryopreserved hepatocytes, 1.0 million cells/mL, 37° C., read-out: in vitro intrinsic clearance (CLint). Here is the method: (§1) Hepatocyte stability assays were performed using pooled cryopreserved hepatocytes (Bioreclamation). Test compounds prepared in DMSO, were incubated at an initial concentration of 1 μM (0.25% DMSO final, n=2) with hepatocytes at cell densities of 1.0 million cells/mL at 37° C. Aliquots were removed at 0.5, 5, 10, 15, 30, 60 and 120 minutes for termination of reactions and compound extraction with acetonitrile containing an analytical internal standard (0.5 μM carbamazepine). Samples were centrifuged and the supernatant fractions analysed for parent compound by mass spectrometry (LC-MS/MS). The amount of compound remaining (expressed as %) was determined from the MS response in each sample relative to that in the T=0 samples (normalised for internal standard). Ln plots of the % remaining were used to determine the half-life for compound disappearance using the relationship: Half-Life(min)=−0.693/λ (where λ is the slope of the Ln % remaining vs time curve).

The target in data set [2] is T1, human muscarinic M1 receptor (Homo sapiens, UniProt P11229).
T1 construct: expressed in transfected cells
T1 sequence (P11229 1-460): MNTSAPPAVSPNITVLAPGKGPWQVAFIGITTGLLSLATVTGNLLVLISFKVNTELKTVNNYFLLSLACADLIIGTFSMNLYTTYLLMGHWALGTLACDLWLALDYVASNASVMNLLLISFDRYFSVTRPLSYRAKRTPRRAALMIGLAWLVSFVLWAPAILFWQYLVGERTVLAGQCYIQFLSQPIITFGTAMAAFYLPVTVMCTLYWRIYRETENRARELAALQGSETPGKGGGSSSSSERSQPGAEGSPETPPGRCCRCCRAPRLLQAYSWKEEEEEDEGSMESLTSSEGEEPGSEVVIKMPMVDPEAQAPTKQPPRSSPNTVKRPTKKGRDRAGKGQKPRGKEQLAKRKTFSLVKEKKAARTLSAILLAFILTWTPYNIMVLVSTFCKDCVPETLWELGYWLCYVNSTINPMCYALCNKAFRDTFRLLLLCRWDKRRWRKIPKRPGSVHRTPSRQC
Kind of data set: Alphascreen Surefire phospho-ERK1/2 functional assay, M1. The format is cell-based. Here is the method: ERK1/2 phosphorylation is a downstream consequence of both Gq/11 and Gi/o protein coupled receptor activation, making it highly suitable for the assessment of M1, M3 (Gq/11 coupled) and M2, M4 receptors (Gi/o coupled), rather than using different assay formats for different receptor subtypes. CHO cells stably expressing the human muscarinic M1, M2, M3 or M4 receptor were plated (25K/well) onto 96-well tissue culture plates in MEM-alpha+10% dialysed FBS. Once adhered, cells were serum-starved overnight. Agonist stimulation was performed by the addition of 5 μL agonist to the cells for 5 min (37° C.). Media was removed and 50 μL of lysis buffer added.

A short description of data set [3]: Hepatocyte stability, CLint (in vitro hepatocytes), rat. The data set is classed as in vitro ADME. To be noted: pooled cryopreserved hepatocytes, 1.0 million cells/mL, 37° C., read-out: in vitro intrinsic clearance (CLint). Here is the method:
as §1

A further data set concerns the target T2, M1 receptor (Homo sapiens, UniProt P11229).
T2 sequence (P11229 1-460): T1 sequence (P11229 1-460)
The data set can be described thus: Predicted target engagement for human efficacious dose (allometric scaling).

The subject of data set [4] is scPCP treated female Lister Hooded rats. Kind of data set: Attenuation of sub-chronic PCP-induced deficit in the operant reversal learning task. The format is in vivo, rat. The following applies: p.o., 1 hour ptt. Here is the method: Investigate the ability of Example 1 (1, 3, 10 and 30 mg/kg, p.o., 1 hour pre-treatment time ptt) to attenuate the disruption of a cognitive task induced by sub-chronic treatment with phencyclidine (scPCP) in female Lister Hooded rats.
Female Lister Hooded rats were used for this experiment. The average weight of rats at the time of testing was 294 g±29 g. Rats were housed in groups of 3-5 under standard laboratory conditions under a 12 hr light: dark cycle (lights on at 0700 hr), and food restricted to 90% of free-feeding bodyweight (12 g of food per rat per day). Testing was carried out in the light phase. Rats were randomly assigned to two treatment groups and received vehicle, n=8 (0.9% saline solution, i.p.) or PCP, n=48 (2 mg/kg, i.p. twice daily for 7-days). On the day of testing, rats were randomly assigned to seven treatment groups (n=6-8 per group) to receive an acute treatment with Example 1 (1, 3, 10 and 30 mg/kg, p.o., 1 hour ptt) or vehicle. […]
Following habituation to the operant chambers, rats were trained to respond for food on an FR1 (Fixed Ratio 1) schedule of reinforcement with both levers active. […] Each session lasted 20 minutes and counts were recorded on each lever. […]
The day before each reversal learning task session, a full […] operant training session (as described above) was conducted to ensure stable responding. […] During this period, responses on both correct and incorrect levers were recorded. […] Responses made on the correct and incorrect levers were again recorded. […]
Data are presented as percent correct response (±S.E.M) with values for the initial and reversal phases are presented for the different drug treatment groups (FIG. 2). The percentage correct response data were used to determine whether there was a significant effect of drug on response accuracy (e.g. that might reflect cognitive dysfunction); Statistical significance was assumed when P<0.05 and was determined using one-way ANOVA in order to detect main effect of drug treatment in the initial and reversal phases.

Data set [5] can be described thus: Hepatocyte stability, CLint (in vitro hepatocytes), dog. The format is in vitro ADME. To be noted: pooled cryopreserved hepatocytes, 1.0 million cells/mL, 37° C., read-out: in vitro intrinsic clearance (CLint). Here is the method: as §1
[6] abbreviates: parameter used in human receptor occupancy prediction.

For `CC(C)(C)NC(=O)C1CCN([C@H]2C[C@H]3CC[C@@H](C2)N3c2nc(C(F)(F)F)no2)CC1` [Example 1, N-tert-butyl-1-{(1R,3r,5S)-8-[3-(trifluoromethyl)-1,2,4-oxadiazol-5-yl]-8-azabicyclo[3.2.1]octan-3-yl}piperidine-4-carboxamide], the hepatocyte CLint at 1 μM in data set [1] was less than 5 µL/min/1e6 cells; in data set [3], 8 µL/min/1e6 cells; in data set [5], 8 µL/min/1e6 cells. Besides, the EC50 in data set [2] (CHO cells stably expressing human M1, phospho-ERK1/2, read-out: pEC50 M1 (converted)) is 67.6 nM; in data set [2] (as quoted in FIG. 1 legend, 50% target engagement, read-out: recombinant human EC50 (M1) (converted)), 65.2 nM; in data set [2] (recombinant human EC50 (M1), as quoted in FIG. 1 legend, 50% target engagement), 86 nM. In addition, the “predicted dose to reach the unbound brain exposure required for M1 agonist efficacy” value on M1 receptor (human, oral, 6 hours unbound brain exposure over recombinant M1 EC50) is given as “approx. 22 mg”. Also, the predicted human half-life on M1 receptor (human, predicted from allometric scaling) is recorded as 15 h. In addition, the “CI (clearance)” value at M1 receptor (setting [6]) was 4.4 mL/min/kg. The “F (bioavailability)” value at M1 receptor (setting [6]) is 0.61. Also, the Ka on M1 receptor (setting [6]) is 1. For the same compound, at M1 receptor (setting [6]), the V was 5.9. Besides, the “percent correct responding in the reversal phase vs scPCP group” value in data set [4] (1 mg/kg, P<0.05) is “increased percent correct responding”; in data set [4] (3 mg/kg, P<0.05) it was “increased percent correct responding”; in data set [4] (10 mg/kg, P<0.01), “increased percent correct responding”.
